Measurements from patent US20070123492A1, “Analogs of lysophosphatidic acid and methods of making and using thereof” (priority 2003, published 2007).

Experiments:
[1] = target: T1, LPA3 (Homo sapiens, UniProt Q9UBY5); assay: Potency on the LPA3 receptor; format: cell-based; conditions: preliminary data
T1 sequence (Q9UBY5 1-353): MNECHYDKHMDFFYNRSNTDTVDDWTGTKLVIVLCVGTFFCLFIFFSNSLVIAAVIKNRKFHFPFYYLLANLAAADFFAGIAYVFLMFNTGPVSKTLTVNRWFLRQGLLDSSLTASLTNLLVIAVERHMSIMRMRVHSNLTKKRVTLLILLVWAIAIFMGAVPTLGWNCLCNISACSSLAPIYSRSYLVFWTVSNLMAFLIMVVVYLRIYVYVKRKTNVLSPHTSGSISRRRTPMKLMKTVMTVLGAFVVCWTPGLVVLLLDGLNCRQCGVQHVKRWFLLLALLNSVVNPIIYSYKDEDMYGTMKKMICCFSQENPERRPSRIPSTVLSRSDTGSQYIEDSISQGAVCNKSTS

[2] = target: T2, LPA1 (Homo sapiens, UniProt Q92633); assay: Agonist/antagonist activity in insect cells expressing LPA1; format: cell-based
T2 construct: expressed in transfected cells; host or cells: insect cells
T2 sequence (Q92633 whole entry, species assumed): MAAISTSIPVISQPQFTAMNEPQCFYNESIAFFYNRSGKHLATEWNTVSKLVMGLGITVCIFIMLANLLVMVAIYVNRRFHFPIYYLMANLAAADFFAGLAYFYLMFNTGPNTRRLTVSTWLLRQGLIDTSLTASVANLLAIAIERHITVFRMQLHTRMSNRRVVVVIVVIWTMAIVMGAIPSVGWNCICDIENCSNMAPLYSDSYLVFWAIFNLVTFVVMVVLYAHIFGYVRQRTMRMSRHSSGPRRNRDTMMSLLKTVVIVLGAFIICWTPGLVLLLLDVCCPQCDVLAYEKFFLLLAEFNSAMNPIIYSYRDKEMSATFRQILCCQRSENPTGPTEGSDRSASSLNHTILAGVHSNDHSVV

[3] = target: T1, LPA3; assay: Agonist/antagonist activity in insect cells expressing LPA3; format: cell-based; design: expressed in transfected cells; host or cells: insect cells
[4] = tested on: (18:1) LPA pain response; assay: (18:1) LPA pain response; format: in vivo; conditions: preliminary results
[5] = tested on: platelets; assay: Platelet activation by fluorinated LPA analogues; format: cell-based; conditions: preliminary results
[6] = target: T3, LPA2 (Homo sapiens, UniProt Q9HBW0); assay: Agonist/antagonist activity in insect cells expressing LPA2; format: cell-based
T3 construct: expressed in transfected cells; host or cells: insect cells
T3 sequence (Q9HBW0 whole entry, species assumed): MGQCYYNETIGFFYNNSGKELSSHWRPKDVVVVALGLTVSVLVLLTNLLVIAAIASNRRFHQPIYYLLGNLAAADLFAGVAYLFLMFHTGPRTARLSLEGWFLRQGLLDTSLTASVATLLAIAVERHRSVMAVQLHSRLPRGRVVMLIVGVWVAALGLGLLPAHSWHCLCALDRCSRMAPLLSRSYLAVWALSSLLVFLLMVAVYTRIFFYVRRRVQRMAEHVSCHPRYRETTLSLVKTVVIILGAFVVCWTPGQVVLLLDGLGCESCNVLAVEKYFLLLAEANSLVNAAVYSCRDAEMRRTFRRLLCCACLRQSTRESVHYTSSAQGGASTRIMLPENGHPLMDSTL

[7] = tested on: LPA receptor; conditions: Xenopus oocytes; cited from earlier work
[8] = target: Edg7/LPA3 (Homo sapiens, UniProt Q9UBY5); conditions: Edg7/LPA3 as compared to Edg2/LPA1 or Edg4/LPA2; cited from earlier work

## CCCCCCCC/C=C\CCCCCCCC(=O)O[C@H](CF)COP(=O)(O)O [Compound 1c, 1-Phospho-2(S)-(oleoyl)-3-fluorine-propane-1,2-diol]
[1]; relative to 1a (R)
  potency on LPA3 relative to 1a (R): approximately 100 fold
[1]
  potency relative to natural 18:1 LPA on the LPA3 receptor: somewhat more potent

## CCCCCCCC/C=C\CCCCCCCC(=O)O[C@H](CF)COP(=O)(O)O [Compound 1a, 1-Phospho-2(S)-(oleoyl)-3-fluorine-propane-1,2-diol]
[2]
  agonist or antagonist activity: failed to show either significant agonist or antagonist activity
[3]
  agonist or antagonist activity: failed to show either significant agonist or antagonist activity
[4]
  agonism of the (18:1) LPA pain response: partial agonists
[5]
  ability to activate platelets: able to activate platelets
[6]
  agonist or antagonist activity: failed to show either significant agonist or antagonist activity

## [1-Fluoro-3(S)-hydroxyl-4-(oleoyloxy)butyl]phosphonate [Compound 3aa]
[1]; relative to 3ab (R)
  potency on LPA3 relative to 3ab (R): approximately 100 fold
[1]
  potency relative to natural 18:1 LPA on the LPA3 receptor: 1000 fold

## CCCCCCCCCCCCCCCC(=O)NC(COP(=O)(O)O)C(=O)O (centres unmarked) [compound 33]
[7]
  antagonism of LPA receptor function: potent competitive antagonists

## CCCCCCCCCCCCCCCC(=O)NC(Cc1ccc(OP(=O)(O)O)cc1)C(=O)O (centres unmarked) [compound 34]
[7]
  antagonism of LPA receptor function: potent competitive antagonists

## CCCCCCCCCCCCCCCC(=O)O[C@H](CF)COP(=O)(O)O [Compound 1b, 1-Phospho-2(S)-(palmitoyl)-3-fluorine-propane-1,2-diol]
[2]
  agonist or antagonist activity: failed to show either significant agonist or antagonist activity
[3]
  agonist or antagonist activity: failed to show either significant agonist or antagonist activity
[4]
  agonism of the (18:1) LPA pain response: partial agonists
[5]
  ability to activate platelets: able to activate platelets
[6]
  agonist or antagonist activity: failed to show either significant agonist or antagonist activity

## CCCCCCCC/C=C\CCCCCCCC(=O)OC[C@@H](COP(O)(O)=S)OC [OMPT]
[8]
  receptor subtype selectivity: preferred selectivity for Edg7/LPA3
